Measured values as given in ChEMBL document CHEMBL1150094, “Cacospongionolide B, a new sesterterpene from the sponge Fasciospongia cavernosa” (J Nat Prod, 1995).
Converted amounts (≈) assume the structure as drawn.

What was measured:
[1] = tested on: Artemia salina; test: Toxicity against Artemia salina; assay type: organism-based; details: in vivo
[2] = tested on: Bacillus subtilis; test: Antimicrobial activity against Bacillus subtilis DSM 347; assay type: functional
[3] = tested on: Micrococcus luteus; test: Antimicrobial activity against Micrococcus luteus DSM 348; assay type: functional

C=C1CCC[C@H]2[C@](C)(CCC3=CCC(C4=CC(=O)OC4O)OC3)[C@H](C)CC[C@]12C (stereo partly drawn) [CACOSPONGIONOLIDE B]
LC50 [1]: 0.25 ppm | MIC [2]: 0.78 µg/mL (≈ 1.95 µM) | MIC [3]: 0.78 µg/mL (≈ 1.95 µM)
